Experiments:
Type in all cases: in vivo
Heliothis virescens = Heliothis virescens (tobacco budworm) egg/artificial diet test; conditions: 96 h, 200 ppm (concentration in well 18 ppm), eggs 0-24 h old on artificial diet, 4 days, egg mortality, larval mortality, growth regulation
Protocol: Heliothis virescens (Tobacco Budworm): Eggs (0-24 h old) were placed in 24-well microtiter plate on artificial diet and treated with test solutions at an application rate of 200 ppm (concentration in well 18 ppm) by pipetting. After an incubation period of 4 days, samples were checked for egg mortality, larval mortality and growth regulation.

Diabrotica balteata = Diabrotica balteata (corn root worm) artificial diet test; conditions: 120 h, 200 ppm (concentration in well 18 ppm), L2 larvae, 5 days, larval mortality and growth regulation
Protocol: Diabrotica balteata (Corn Root Worm): A 24-well microtiter plate (MTP) with artificial diet was treated with test solutions at an application rate of 200 ppm (concentration in well 18 ppm) by pipetting. After drying, the MTP's were infested with larvae (L2) (6-10 per well). After an incubation period of 5 days, samples were checked for larval mortality, and growth regulation.

Tetranychus urticae = Tetranychus urticae (two-spotted spider mite) bean leaf disc test; conditions: foliar, 192 h, 200 ppm sprayed on bean leaf discs, mixed ages, 8 days, egg, larval and adult mortality
Excerpt: Tetranychus urticae (Two-Spotted Spider Mite): Bean leaf discs on agar in 24-well microtiter plates were sprayed with test solutions at an application rate of 200 ppm. After drying, the leaf discs are infested with mite populations of mixed ages. 8 days later, discs are checked for egg mortality, larval mortality, and adult mortality.

Thrips tabaci = Thrips tabaci (onion thrips) sunflower leaf disc test; conditions: foliar, 168 h, 200 ppm sprayed on sunflower leaf discs, mixed ages, 7 days, mortality
Protocol: Thrips tabaci (Onion Thrips): Sunflower leaf discs were placed on agar in a 24-well microtiter plate and sprayed with test solutions at an application rate of 200 ppm. After drying, the leaf discs were infested with an […] population of mixed ages. After an incubation period of 7 days, samples were checked for mortality.

Plutella xylostella = Plutella xylostella (diamond back moth) artificial diet test; conditions: 144 h, 200 ppm (concentration in well 18 ppm), L2 larvae, 6 days, larval mortality and growth regulation
Protocol: Plutella xylostella (Diamond Back Moth): A 24-well microtiter plate (MTP) with artificial diet was treated with test solutions at an application rate of 200 ppm (concentration in well 18 ppm) by pipetting. After drying, the MTP's were infested with L2 larvae (7-12 per well). After an incubation period of 6 days, samples were checked for larval mortality and growth regulation.

Spodoptera littoralis = Spodoptera littoralis (Egyptian cotton leafworm) cotton leaf disc test; conditions: foliar, 72 h, 200 ppm sprayed on cotton leaf discs, 5 L1 larvae, mortality, feeding behaviour, growth regulation 3 DAT
Excerpt: Spodoptera littoralis (Egyptian Cotton Leafworm): Cotton leaf discs were placed on agar in a 24-well microtiter plate and sprayed with test solutions at an application rate of 200 ppm. After drying, the leaf discs were infested with 5 L1 larvae. The samples were checked for mortality, feeding behaviour, and growth regulation 3 days after treatment (DAT).

Measured: pest or weed control at 200 ppm

Cc1cc(C#N)ccc1C(=O)Nc1cc(C(=O)Nc2c(C(F)(F)F)c(C(F)(F)C(F)(F)F)nn2C)ccc1C#N [Compound A1, 3-(4-cyano-2-methyl-Benzoyl) amino-4-cyano-N-(2-methyl-5-pentafluoroethyl-4-trifluoromethyl-2H-pyrazol-3-yl)-benzamide]
≥ 80%: Heliothis virescens | Diabrotica balteata | Tetranychus urticae | Thrips tabaci

Cn1nc(C(F)(F)C(F)(F)F)c(C(F)(F)F)c1NC(=O)c1cccc(NC(=O)c2ccccc2)c1F [Compound B16]
≥ 80%: all assays above

Cn1nc(C(F)(F)C(F)(F)F)c(C(F)(F)F)c1NC(=O)c1cccc(NC(=O)c2cc(Cl)ccc2F)c1 [Compound D8]
≥ 80%: all assays above

Cn1nc(C(F)(F)C(F)(F)F)c(C(F)(F)F)c1NC(=O)c1cccc(NC(=O)c2ccc([N+](=O)[O-])cc2Cl)c1 [Compound D9]
≥ 80%: Diabrotica balteata | Tetranychus urticae | Thrips tabaci

Cn1nc(C(F)(F)C(F)(F)F)c(C(F)(F)F)c1NC(=O)c1cccc(NC(=O)c2ccc(F)cc2)c1 [Compound D17]
not listed: Heliothis virescens
≥ 80%: all other assays above

Cn1nc(C(F)(F)C(F)(F)F)c(C(F)(F)F)c1NC(=O)c1cccc(NC(=O)c2ccc(F)cc2Cl)c1 [Compound D19]
not listed: Heliothis virescens
≥ 80%: all other assays above

Cn1nc(C(F)(F)C(F)(F)F)c(C(F)(F)F)c1NC(=O)c1cccc(NC(=O)c2ccc(F)cc2F)c1 [Compound D22]
not listed: Tetranychus urticae
≥ 80%: all other assays above
